Measured values as given in paper PMC4689457, “Immucillins ImmA and ImmH Are Effective and Non-toxic in the Treatment of Experimental Visceral Leishmaniasis” (PLoS Neglected Tropical Diseases, 2015).
Read-outs that look alike come from different tables or passages of the source.

Legend:
L. (L.) infantum chagasi [1] = assay: Liver parasite load (LDU) in infected BALB/c mice after chemotherapy; format: in vivo; details: 2.5 mg/kg/day ip 5 days
Procedure: (§1) Female BALB/c mice, 8 week old, were infected through the caudal vein with 10^7 amastigotes of L. (L.) infantum (strain IOC-L 3324) isolated from infected hamsters spleens. After 15 days of infection, mice (n = 5 per treatment) were injected by the intraperitoneal route (ip) with daily doses for 5 days of 2.5 mg/Kg of IA, IH, SMIH [30, 31] or the control drug Glucantime (Sanofi Aventis, batch 0929280802) (Fig 1). Immucillins were synthesized at the Ferrier Research Institute, Victoria University of Wellington, New Zealand. Uninfected and infected mice treated only with saline were included as controls for the treatment cohorts. On days 1, 15, and 30 after complete treatment, the animals were euthanized with CO2. Blood samples were collected for sera analysis and weight of spleens, livers and total body were determined. Spleens were also used for determination of cytokine expression. The parasite load was evaluated in Giemsa-stained liver smears and expressed in LDU values (Leishman Donovan units of Stauber = number of amastigotes per 1000 liver cell nuclei/mg of liver weight). The levels of urea, creatinine, glutamate pyruvate transaminase (GPT) and glutamate oxaloacetate transaminase ([…]) were assessed in plasma by standard clinical laboratory procedures using a Wiener lab Metrolab 2300 (Laborlife Análises Clínicas laboratory, Rio de Janeiro).

[2] = tested on: L. (L.) infantum chagasi infection; assay: Survival, body and organ weights of infected treated BALB/c mice; format: in vivo; details: end of the experiment
Procedure: as §1

[3] = tested on: anti-NH36 IgG, IgG1 and IgG2a antibodies; assay: Anti-NH36 antibody ELISA in sera of infected treated mice; format: in vivo, BALB/c mice
Procedure: The NH36 gene of Leishmania (L.) donovani (EMBL, Genbank and DDJB data bases, access number AY007193) with a His6tag at the C-terminal was cloned in E. coli Bl21DE3. Expression of the recombinant NH36 was obtained by induction with 0.5mM IPTG and overnight incubation at 20°C. Cultures were harvested by centrifugation and the pellets submitted to sonication during 10 minutes with cycles of 30 sec. and intervals of 55 sec. Sonicates were centrifuged and their supernatants separated for purification by column chromatography using Ni-NTA Superflow resin (Qiagen, USA). The column was eluted with a 50mM potassium phosphate, 300 mM NaCl buffer, pH: 8.0, using a 50 to 300mM imidazole gradient. The fraction containing NH36 recombinant antigen was recovered, dyalized and preserved at -80°C. Sera were collected from mice by intracardiac puncture on day 1, 15 and 30 following complete chemotherapy and assayed for the presence of anti-NH36 IgG, IgG1 and IgG2a antibodies. For that purpose the recombinant NH36 antigen (40 μg/mL) was solubilized in 0.1M sodium carbonate buffer (8.4 g of NaHCO3, 3.56 g of Na2CO3 per L; pH 9.6), and used to coat flat-bottom 96-well plates. Antibodies were detected by goat anti-mice IgG (Sigma), anti-IgG1 and anti-IgG2a peroxidase-conjugates (Southern Biotechnology Associates, Birmingham, AL, EEUU) in a 1:1000 dilution. The absorbance values at 492 ηm were compared using a 1:100 dilution of the serum samples. Results are expressed as mean values of triplicates. We used the mean average + 2 SD of serum from normal uninfected controls in order to calculate the cut-off value according to the Youden test.

splenocytes = assay: Cytokine secretion by splenocytes of uninfected treated mice incubated in vitro with the respective drug; format: cell-based, BALB/c mice; details: splenocytes + 10 μg/ml drug
Procedure: (§2) Female BALB/c mice, 8 weeks old, were injected intraperitoneally with daily doses 2.5 mg/Kg of IA, IH, SMIH or Glucantime during five days and euthanized on day 1, 15 and 30 after complete treatment. For evaluation of the T cell response, spleens were removed and splenocytes were incubated for 24 h in vitro with the lysate of 10^6 stationary phase promastigotes of L. (L.) infantum chagasi (MHOM/BR/1974/PP75), with 25 μg/mL NH36, at 37°C and 5% CO2, during 72 h for the assay of the cytokine expression in the supernatants. Additionally, splenocytes from uninfected BALB/c mice either untreated or previously treated with IA, IH, SMIH or Glucantime were incubated in vitro with 10 μg/mL of each respective drug. For flow cytometry analysis (FACS analysis), splenocytes were incubated for 24 h with the antigens or drugs, labeled with anti-CD4FITC (clone GK1.5), anti-CD8FITC (clone 53–6.7) monoclonal antibodies (R&D systems, Inc) or with rat anti-mouse CD19-PerCP-Cy5.5 and 100,000 lymphocyte counts were acquired using a BD FACScalibur apparatus. Data was analyzed using the Flow-Jo program. The secretion of cytokines was evaluated in the supernatants of splenocytes by an ELISA assay.

[4] = tested on: CD4+, CD8+ and CD19+ lymphocytes; assay: CD4+, CD8+ and CD19+ lymphocyte frequencies by flow cytometry in splenocytes of uninfected treated mice; format: cell-based, BALB/c mice; details: for CD8+ T cell frequencies: day 1 after treatment
Procedure: as §2

L. (L.) infantum chagasi [5] = assay: Liver parasite load in infected CB hamsters after chemotherapy; format: in vivo, CB golden hamster; details: 2.5 mg/kg/day ip 5 days, 10 days after complete treatment; for liver parasite load: untreated 16,334 LDU
Procedure: (§3) The efficacy of immucillins was also assayed in the CB golden hamster susceptible model. Females, 8 weeks old, were infected through the intracardiac route with 2 x 10^7 amastigotes of L. (L.) infantum chagasi (strain IOC-L 3324) isolated from infected hamsters spleens. Thirty days after infection, the animals were treated with 2.5 mg/kg daily doses of Glucantime, IA, IH or SMIH, through the ip route, for five days. Ten days after complete treatment the animals were euthanized, their parasite load was determined in livers and the renal function evaluated in sera samples as described above.

[6] = Body weight and renal/hepatic markers in sera of infected treated hamsters; format: in vivo, CB golden hamster
Procedure: as §3

[7] = molecular target: L. (L.) donovani recombinant NH36; set-up: method as in PMID 25909893; details: ref 29; read-out: Ki, inhibition of NH36 enzymatic activity; cited from earlier work
[8] = tested on: L. (L.) infantum chagasi promastigotes; set-up: method as in PMID 25909893; details: cited from earlier work
[9] = tested on: L. (L.) amazonensis promastigotes; set-up: method as in PMID 25909893; details: cited from earlier work
[10] = tested on: L. (L.) infantum chagasi amastigotes; set-up: method as in PMID 25909893; details: 10 μM; cited from earlier work
macrophage = tested on: macrophage; set-up: method as in PMID 25909893; details: 10 μM; cited from earlier work
human lymphocytes = details: cited from earlier work
[11] = cited from earlier work
amastigotes = details: cited from earlier work
IgG2a response, IL-10 = details: cited from earlier work; for IL-10 reduction: 1 day after complete treatment
blood PNP = tested on: blood PNP; set-up: method as in PMID 19170524; details: mice; cited from earlier work
visceral leishmaniasis = details: oral therapy, cited from earlier work
[12] = Renal and hepatic function markers in plasma of mice; format: in vivo, BALB/c mice
Procedure: as §1

[13] = day 1 after complete treatment, vs untreated infected controls
[14] = day 30 after complete treatment

## Nc1ncnc2c([C@@H]3N[C@H](CO)[C@@H](O)[C@H]3O)c[nH]c12 [IA]
L. (L.) infantum chagasi [1]; [13]
  reduction of liver parasite load (LDU): 45%
L. (L.) infantum chagasi [1]; [14]
  reduction of liver parasite load (LDU): 89%
[2]
  survival: 100%
[3]; day 1
  anti-NH36 IgG1 in infected untreated controls higher than in treated mice: 69%
[3]; day 15
  anti-NH36 IgG1 in infected untreated controls higher than in treated mice: 64%
[3]; day 30
  anti-NH36 IgG1 in infected untreated controls higher than in treated mice: 57%
splenocytes
  IL-10 levels: 113 pg/mL
[4]
  CD19 B cell frequencies enhanced by previous treatment: ~ 30%
  CD8+ T cell frequencies: increased
[4]; day 1
  CD4+ T cell frequency, higher proportion than previously untreated controls: 57%
[4]; day 15
  CD4+ T cell frequency, higher proportion than previously untreated controls: 21%
[4]; day 30
  CD4+ T cell frequency, higher proportion than previously untreated controls: 29%
L. (L.) infantum chagasi [5]
  liver parasite load reduction: 86%
  liver parasite load: 2,038 LDU
[6]; infected hamsters
  body weight: increase in body weight
  decrease of creatinine: 66%
[7]
  Ki: 80 nM
[8]
  concentrations inhibiting growth of promastigotes in vitro: nanomolar to micromolar
[9]
  concentrations inhibiting growth of promastigotes in vitro: nanomolar to micromolar
[10]
  inhibition of intracellular replication of amastigotes: 95%
macrophage
  damage to macrophage viability: no apparent damage
Human lymphocytes
  mutagenicity or chromosomal aberrations: did not induced mutagenicity or chromosomal aberrations
[11]; mouse, rat, guinea pig and cynomolgus macaque
  metabolic stability: metabolically stable
[11]; ref 37
  clearance from plasma: rapid clearance

## N.N.[Cl][Pt][Cl] [cisplatin]
amastigotes; ref 30
  reduction in parasite burden: 75%
amastigotes; ref 31
  reduction in parasite burden: 80%
amastigotes; ref 32
  reduction in parasite burden: 50%
IgG2a response, IL-10
  IL-10 reduction: 50%
IgG2a response, IL-10; ref 30, 31
  enhancement of the IgG2a response: 50–55%

## O=c1[nH]cnc2c(CNC(CO)CO)c[nH]c12 [SMIH]
L. (L.) infantum chagasi [1]; [14]
  reduction of liver parasite load (LDU): 85%
[2]
  survival: 100%
[4]
  CD4+ T cell frequencies (in words): lower CD4+ T cell frequencies
  CD19 B cell frequencies enhanced by previous treatment: ~ 30%
  CD8+ T cell frequencies: diminished
L. (L.) infantum chagasi [5]
  liver parasite load reduction: no cure
[6]; infected hamsters
  reduction of blood urea levels: ~ 50%
[8]
  concentrations inhibiting growth of promastigotes in vitro: nanomolar to micromolar
[9]
  concentrations inhibiting growth of promastigotes in vitro: nanomolar to micromolar
[10]
  inhibition of intracellular replication of amastigotes: 95%
macrophage
  damage to macrophage viability: no apparent damage
Blood PNP
  oral availability: orally available

## O=c1[nH]cnc2c([C@@H]3N[C@H](CO)[C@@H](O)[C@H]3O)c[nH]c12 [IH]
L. (L.) infantum chagasi [1]; [14]
  reduction of liver parasite load (LDU): 85%
[2]
  survival: 100%
[4]
  CD19 B cell frequencies enhanced by previous treatment: sustained
L. (L.) infantum chagasi [5]
  liver parasite load reduction: 70%
  liver parasite load: 4,905 LDU
[6]; hamster, in vivo
  decrease of creatinine: 63%
  reduction of GOT levels: ~ 30%
  reduction of blood urea levels: ~ 50%
[6]; infected hamsters
  body weight: increase in body weight
[7]
  Ki: 19 nM
[8]
  concentrations inhibiting growth of promastigotes in vitro: nanomolar to micromolar
[9]
  concentrations inhibiting growth of promastigotes in vitro: nanomolar to micromolar
[10]
  inhibition of intracellular replication of amastigotes: 95%
macrophage
  damage to macrophage viability: no apparent damage

## Nc1nc2c(CN3C[C@H](CO)[C@@H](O)C3)c[nH]c2c(=O)[nH]1 [DIG]
[8]
  concentrations inhibiting growth of promastigotes in vitro: nanomolar to micromolar
[9]
  concentrations inhibiting growth of promastigotes in vitro: nanomolar to micromolar

## 1,3,4-tiadiazolium-2 aminide
IgG2a response, IL-10
  IL-10 reduction: 75%

## CCCCCCCCCCCCCCCCOP(=O)([O-])OCC[N+](C)(C)C [Miltefosine]
Visceral leishmaniasis; Brazil
  cure rates: 50%
Visceral leishmaniasis; India
  success rates: 94%
amastigotes; ref 46
  reduction in parasite burden: 50%
IgG2a response, IL-10; ref 46
  enhancement of the IgG2a response: 75%

## O=c1[nH]cnc2c(CN3C[C@H](CO)[C@@H](O)C3)c[nH]c12 [DIH]
[8]
  concentrations inhibiting growth of promastigotes in vitro: nanomolar to micromolar
[9]
  concentrations inhibiting growth of promastigotes in vitro: nanomolar to micromolar

## Glucantime [reference compound]
L. (L.) infantum chagasi [1]; [13]
  reduction of liver parasite load (LDU): 46%
L. (L.) infantum chagasi [1]; [14]
  reduction of liver parasite load (LDU): 88%
[2]
  survival: 100%
[3]; day 1
  anti-NH36 IgG2a increase vs untreated infected controls: 67%
splenocytes
  IL-10 levels: 509 pg/mL
[4]
  CD4+ T cell frequencies (in words): high CD4+ T cell increase (p<0.05) only on day 1
  CD19 B cell frequencies enhanced by previous treatment: ~ 30%
  CD8+ T cell frequencies: increased
[12]
  renal (urea and creatinine) and hepatic (GOT and GTP) toxicity: Pronounced toxicity
[12]; 2.5 mg/kg/day ip 5 days
  increase in GOT serum level: 6 fold
  increase in GPT serum level: 9 fold
  increase in creatinine serum level: 9 fold
  increase in urea serum level: 4 fold
[6]; infected hamsters
  body weight: increase in body weight
  decrease of creatinine: 41%
  reduction of blood urea levels: ~ 50%

## Nc1nc(O)c2[nH]cc(CNC(CO)CO)c2n1 [SMIG]
[8]
  concentrations inhibiting growth of promastigotes in vitro: nanomolar to micromolar
[9]
  concentrations inhibiting growth of promastigotes in vitro: nanomolar to micromolar
